Test results reported in article PMC2233901 (The Journal of General Physiology, 2004).
Numbering of substitutions follows the chain as printed.

Columns and labels:
Format in all cases: cell-based
[1] = molecular target: T1, mBest2 (mouse bestrophin-2) (Mus musculus, UniProt Q8BGM5); assay: whole-cell patch clamp, block of Cl current in HEK293
T1 sequence (Q8BGM5 1-508): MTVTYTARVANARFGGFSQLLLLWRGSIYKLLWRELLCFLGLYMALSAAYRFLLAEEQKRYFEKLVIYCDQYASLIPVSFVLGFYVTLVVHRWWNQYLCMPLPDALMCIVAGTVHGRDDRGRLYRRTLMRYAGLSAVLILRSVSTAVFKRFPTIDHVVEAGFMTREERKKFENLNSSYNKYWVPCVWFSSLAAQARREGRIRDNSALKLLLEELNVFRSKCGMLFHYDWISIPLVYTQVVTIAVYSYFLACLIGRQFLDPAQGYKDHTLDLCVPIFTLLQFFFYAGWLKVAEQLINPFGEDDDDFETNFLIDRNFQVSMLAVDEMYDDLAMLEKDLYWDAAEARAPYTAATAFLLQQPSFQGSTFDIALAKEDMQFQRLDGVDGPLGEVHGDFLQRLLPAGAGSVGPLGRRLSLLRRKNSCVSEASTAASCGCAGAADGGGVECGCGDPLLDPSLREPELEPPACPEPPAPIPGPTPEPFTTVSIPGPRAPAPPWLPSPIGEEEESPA

[2] = molecular target: T2, mBest2 (mouse bestrophin-2) (Mus musculus, UniProt Q8BGM5, S79T); assay: as above
T2 sequence (Q8BGM5 1-508 S79T): T1 sequence (Q8BGM5 1-508) with S79T

[3] = molecular target: T3, mBest2 (mouse bestrophin-2) (Mus musculus, UniProt Q8BGM5, F80R); assay: whole-cell patch clamp, inhibition of Cl current in HEK293
T3 sequence (Q8BGM5 1-508 F80R): T1 sequence (Q8BGM5 1-508) with F80R

| IC50 [1] | IC50 [2] | Ki [3] | SMILES |
| --- | --- | --- | --- |
| 9.8 ± 1.1 mM | 18.5 ± 2.7 mM |  | N#CS [SCN] |
|  |  | 0.016 mM | O=S(=O)(O)c1cc(N=C=S)ccc1/C=C/c1ccc(N=C=S)cc1S(=O)(=O)O [DIDS] |
